Experiment [1] concerns HMC-1 cells. In words: Measurement of PGD2 produced by mast cells (PGD2-MOX EIA). The class given is cell-based, human. The settings on record: HQL-79 100 μM 60 minutes, then A23187. The method, then:
HMC-1 cells (1×10^6/well) were seeded into 6-well plates and cultured in IMDM medium with 5% FBS in the absence or presence of HQL-79 (H-PGDS inhibitor, 100 μM) at 37° C. for 60 minutes. The cells were then washed and resuspended in RPMI 1640 medium with 0.5% FBS. After 2 hours incubation, the cells were stimulated with 10 μM calcium ionophore A23187 for 30 minutes. The culture media were collected and PGD2 in the supernatants was quantified by PGD2-MOX EIA kits (Cayman Chemical).

The test system of experiment [2] is orbital fibroblasts co-cultured with HMC-1 cells. Put plainly: Co-culture of HMC-1 mast cells with orbital fibroblasts, HA ELISA. The class given is cell-based, human. The settings on record: HMC-1 cells pretreated with HQL-79, ratio 20:1, compared to vehicle. The method, then: HMC-1 mast cells were allowed to proliferate in Iscove's Modified Dulbecco's Medium (IMDM) enriched with 5% FBS. Co-cultures were initiated by introducing HMC-1 cells to confluent cultures of fibroblasts as previously described (24). Mast cells were washed with RPMI-1640 medium (0.5% FBS) once before addition to the fibroblasts (1:1 ratio, unless otherwise specified). After 4 hours, the media and HMC-1 cells were removed by gently rinsing in PBS and fresh RPMI-1640 medium (0.5% FBS) was used to cover the cells. Alternatively, fibroblasts and mast cells were co-cultured in a transwell system (0.4 μm; Greiner Bio-one, New York, N.Y.) with fibroblasts being cultured on the bottom and the mast cells in the top chamber. The ratio of mast cells to fibroblasts was varied from 5:1 to 20:1.
Aliquots of culture medium were removed at indicated time points, centrifuged (5 min, 8,000×g at 4° C.) and HA levels quantified by enzyme-linked immunosorbent assay (ELISA) according to the manufacturer's protocol (R&D Systems). Briefly, samples were incubated in HA-binding protein (HABP)-coated microwells, allowing HA in samples to react with the immobilized HABP. […] After the last wash, the chromogenic substrate was added and HA levels were determined using a Varioskan Flash plate reader (Thermo Fisher Scientific, Milford, Mass.).
In general terms: In an ELISA, binding on a coated surface is turned into a signal by an enzyme label.

Structures are written as SMILES.

In the case of `c1ccc(C(OC2CCN(CCCc3nnn[nH]3)CC2)c2ccccc2)cc1` [HQL-79, 4-benzhydryloxy-1-[3-(1H-tetrazol-5-yl)-propyl]-piperidine], the “level of PGD2 in activated HMC-1 cells” value in experiment [1] is recorded as “significantly reduced the level of PGD2 in activated HMC-1 cells”. For the same compound, the “production of HA by orbital fibroblasts in transwell co-culture” value in experiment [2] is given as “significantly attenuated the production of HA by orbital fibroblasts”.

The values are drawn from patent US9320723B2, “Methods of treating thyroid eye disease” (University of Rochester, priority 2010, dated 2016).
